From patent US9029404B2, “Apoptosis-inducing agents for the treatment of cancer and immune and autoimmune diseases” (AbbVie Inc., priority 2008, dated 2015)

These molecules were tested against GST-Bcl-2 (Homo sapiens, UniProt P10415) (assay: Time Resolved-Fluorescence Resonance Energy Transfer (TR-FRET) Bcl-2 binding assay). Settings: competition with F-Bak peptide probe (100 nM); GST-Bcl-2 1 nM; Tb-anti-GST 1 nM; 3 hours at room temperature; Wang's equation.
Protocol: Determination of the utility of compounds having Formula (I) as binders to and inhibitors of anti-apoptotic Bcl-2 proteins was performed using the Time Resolved-Fluorescence Resonance Energy Transfer (TR-FRET) Assay. Tb-anti-GST antibody was purchased from Invitrogen (Catalog No. PV4216).
(§1) Representative compounds were serially diluted in dimethyl sulfoxide (DMSO) starting at 50 μM (2× starting concentration; 10% DMSO) and 10 μL were transferred into a 384-well plate. The samples are then mixed on a shaker for 1 minute and incubated for an additional 3 hours at room temperature. For each assay, the probe/antibody and protein/probe/antibody were included on each assay plate as negative and positive controls, respectively. Fluorescence was measured on the Envision (Perkin Elmer) using a 340/35 nm excitation filter and 520/525 (F-Bak peptide) and 495/510 nm (Tb-labeled anti-Histidine antibody) emission filters.
as §1, with “The” for “Representative compounds were serially diluted in dimethyl sulfoxide (DMSO) starting at 50 μM (2× starting concentration; 10% DMSO) and 10 μL were transferred into a 384-well plate. The”, “were” for “are”
The inhibition constant (Ki) is the dissociation constant of an enzyme-inhibitor complex or a protein/small molecule complex, wherein the small molecule is inhibiting binding of one protein to another protein. So a large Ki value indicates a low binding affinity and a small Ki value indicates a high binding affinity.

Sequence of GST-Bcl-2 (P10415 whole entry): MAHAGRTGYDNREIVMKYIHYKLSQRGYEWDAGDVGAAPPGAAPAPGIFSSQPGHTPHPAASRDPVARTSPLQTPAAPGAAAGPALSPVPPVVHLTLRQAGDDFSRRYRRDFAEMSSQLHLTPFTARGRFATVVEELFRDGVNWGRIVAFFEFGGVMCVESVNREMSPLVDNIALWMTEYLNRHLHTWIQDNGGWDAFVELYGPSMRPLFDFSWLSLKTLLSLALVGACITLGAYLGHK

Going from `CC1(C)CCC(CN2CCN(c3ccc(C(=O)NS(=O)(=O)c4ccc(OCC5(F)CCOCC5)c(Cl)c4)c(Oc4cc5cc[nH]c5cc4F)c3)CC2)=C(c2ccc(Cl)cc2)C1` [Example 412, N-({3-chloro-4-[(4-fluorotetrahydro-2H-pyran-4-yl)methoxy]phenyl}sulfonyl)-4-(4-{[2-(4-chlorophenyl)-4,4-dimethylcyclohex-1-en-1-yl]methyl}piperazin-1-yl)-2-[(6-fluoro-1H-indol-5-yl)oxy]benzamide] to `CC1(C)CCC(CN2CCN(c3ccc(C(=O)NS(=O)(=O)c4cnc(OC[C@H]5CC[C@H](O)CC5)c(Cl)c4)c(Oc4ccc(F)c5[nH]ncc45)c3)CC2)=C(c2ccc(Cl)cc2)C1` [Example 419, N-({5-chloro-6-[(trans-4-hydroxycyclohexyl)methoxy]pyridin-3-yl}sulfonyl)-4-(4-{[2-(4-chlorophenyl)-4,4-dimethylcyclohex-1-en-1-yl]methyl}piperazin-1-yl)-2-[(7-fluoro-1H-indazol-4-yl)oxy]benzamide], the Ki falls from 1.12 nM to 0.012 nM (93-fold).

First: CC1(C)CCC(CN2CCN(c3ccc(C(=O)NS(=O)(=O)c4ccc(N[C@@H]5CCN(C6COC6)C5)c([N+](=O)[O-])c4)c(Oc4cnc(N)c(Cl)c4)c3)CC2)=C(c2ccc(Cl)cc2)C1 [Example 455, 2-[(6-amino-5-chloropyridin-3-yl)oxy]-4-(4-{[2-(4-chlorophenyl)-4,4-dimethylcyclohex-1-en-1-yl]methyl}piperazin-1-yl)-N-[(3-nitro-4-{[(3R)-1-(oxetan-3-yl)pyrrolidin-3-yl]amino}phenyl)sulfonyl]benzamide]
Second: CC1(C)CCC(CN2CCN(c3ccc(C(=O)NS(=O)(=O)c4cnc(OCC5(F)CCOCC5)c(Cl)c4)c(Oc4cccc5[nH]nc(N)c45)c3)CC2)=C(c2ccc(Cl)cc2)C1 [Example 430, 2-[(3-amino-1H-indazol-4-yl)oxy]-N-({5-chloro-6-[(4-fluorotetrahydro-2H-pyran-4-yl)methoxy]pyridin-3-yl}sulfonyl)-4-(4-{[2-(4-chlorophenyl)-4,4-dimethylcyclohex-1-en-1-yl]methyl}piperazin-1-yl)benzamide]
The Ki of the first is higher: 0.011 nM for the first, under 0.01 nM for the second.

Compared with `CC1(C)CCC(CN2CCN(c3ccc(C(=O)NS(=O)(=O)c4ccc(NCC5CCOCC5)c([N+](=O)[O-])c4)c(Oc4cccc5[nH]nc(N)c45)c3)CC2)=C(c2ccc(Cl)cc2)C1` [Example 431, 2-[(3-amino-1H-indazol-4-yl)oxy]-4-(4-{[2-(4-chlorophenyl)-4,4-dimethylcyclohex-1-en-1-yl]methyl}piperazin-1-yl)-N-({3-nitro-4-[(tetrahydro-2H-pyran-4-ylmethyl)amino]phenyl}sulfonyl)benzamide], `CC1(C)CCC(CN2CCN(c3ccc(C(=O)NS(=O)(=O)c4ccc(OCC5CCC6(CC5)COC6)c([N+](=O)[O-])c4)c(Oc4cnc(N)c(Cl)c4)c3)CC2)=C(c2ccc(Cl)cc2)C1` [Example 440, 2-[(6-amino-5-chloropyridin-3-yl)oxy]-4-(4-{[2-(4-chlorophenyl)-4,4-dimethylcyclohex-1-en-1-yl]methyl}piperazin-1-yl)-N-{[3-nitro-4-(2-oxaspiro[3.5]non-7-ylmethoxy)phenyl]sulfonyl}benzamide] is higher in Ki: under 0.01 nM for the first, 0.022 nM for the second. The first binds more tightly here.

First: CC1(C)CCC(CN2CCN(c3ccc(C(=O)NS(=O)(=O)c4cnc(OCC5CCC(C)(O)CC5)c(Cl)c4)c(Oc4cc(F)cc5[nH]ncc45)c3)CC2)=C(c2ccc(Cl)cc2)C1 (stereo not drawn) [Example 424, N-({5-chloro-6-[(trans-4-hydroxy-4-methylcyclohexyl)methoxy]pyridin-3-yl}sulfonyl)-4-(4-{[2-(4-chlorophenyl)-4,4-dimethylcyclohex-1-en-1-yl]methyl}piperazin-1-yl)-2-[(6-fluoro-1H-indazol-4-yl)oxy]benzamide]
Second: 2-[(6-amino-5-chloropyridin-3-yl)oxy]-4-(4-{[2-(4-chlorophenyl)-4,4-dimethylcyclohex-1-en-1-yl]methyl}piperazin-1-yl)-N-{[4-({[4-({[4-(methoxymethyl)cyclohexyl]methyl}amino)-3-nitrophenyl]sulfonyl}amino)-3-nitrophenyl]sulfonyl}benzamide [Example 454]
The Ki of the first is lower: under 0.01 nM for the first, 0.024 nM for the second. The first binds more tightly here.

Compared with `CO[C@H]1CC[C@H](CNc2ccc(S(=O)(=O)NC(=O)c3ccc(N4CCN(CC5=C(c6ccc(Cl)cc6)CC(C)(C)CC5)CC4)cc3Oc3cccc4[nH]nc(N)c34)cc2[N+](=O)[O-])CC1` [Example 435, 2-[(3-amino-1H-indazol-4-yl)oxy]-4-(4-{[2-(4-chlorophenyl)-4,4-dimethylcyclohex-1-en-1-yl]methyl}piperazin-1-yl)-N-[(4-{[(trans-4-methoxycyclohexyl)methyl]amino}-3-nitrophenyl)sulfonyl]benzamide], `CC1(C)CCC(CN2CCN(c3ccc(C(=O)NS(=O)(=O)c4ccc(NC[C@H]5CC[C@H](C#N)CC5)c([N+](=O)[O-])c4)c(Oc4cnc(N)c(Cl)c4)c3)CC2)=C(c2ccc(Cl)cc2)C1` [Example 401, Trans-2-[(6-amino-5-chloropyridin-3-yl)oxy]-4-(4-{[2-(4-chlorophenyl)-4,4-dimethylcyclohex-1-en-1-yl]methyl}piperazin-1-yl)-N-[(4-{[(4-cyanocyclohexyl)methyl]amino}-3-nitrophenyl)sulfonyl]benzamide] is 3.5-fold higher in Ki: 0.01 nM for the first, 0.035 nM for the second.

`CC1(C)CCC(CN2CCN(c3ccc(C(=O)NS(=O)(=O)c4ccc(OCC5(F)CCN(C6COC6)CC5)c([N+](=O)[O-])c4)c(Oc4cnc(N)c(Cl)c4)c3)CC2)=C(c2ccc(Cl)cc2)C1` [Example 432, 2-[(6-amino-5-chloropyridin-3-yl)oxy]-4-(4-{[2-(4-chlorophenyl)-4,4-dimethylcyclohex-1-en-1-yl]methyl}piperazin-1-yl)-N-[(4-{[4-fluoro-1-(oxetan-3-yl)piperidin-4-yl]methoxy}-3-nitrophenyl)sulfonyl]benzamide] and `CC1(C)CCC(CN2CCN(c3ccc(C(=O)NS(=O)(=O)c4ccc(NCC5CCC6(CC5)COC6)c([N+](=O)[O-])c4)c(Oc4cnc(N)c(Cl)c4)c3)CC2)=C(c2ccc(Cl)cc2)C1` [Example 450, 2-[(6-amino-5-chloropyridin-3-yl)oxy]-4-(4-{[2-(4-chlorophenyl)-4,4-dimethylcyclohex-1-en-1-yl]methyl}piperazin-1-yl)-N-({3-nitro-4-[(2-oxaspiro[3.5]non-7-ylmethyl)amino]phenyl}sulfonyl)benzamide] cannot be ordered by Ki: under 0.01 nM for the first, under 0.01 nM for the second.

First: Cn1c(=O)[nH]c2cccc(Oc3cc(N4CCN(CC5=C(c6ccc(Cl)cc6)CC(C)(C)CC5)CC4)ccc3C(=O)NS(=O)(=O)c3cnc(OCC4CCOCC4)c(Cl)c3)c21 [Example 425, 4-(4-{[2-(4-chlorophenyl)-4,4-dimethylcyclohex-1-en-1-yl]methyl}piperazin-1-yl)-N-{[5-chloro-6-(tetrahydro-2H-pyran-4-ylmethoxy)pyridin-3-yl]sulfonyl}-2-[(3-methyl-2-oxo-2,3-dihydro-1H-benzimidazol-4-yl)oxy]benzamide]
Second: CC1(C)CCC(CN2CCN(c3ccc(C(=O)NS(=O)(=O)c4ccc(N[C@H]5CC[C@@H](N6CCOCC6)CC5)c([N+](=O)[O-])c4)c(Oc4cnc(N)c(Cl)c4)c3)CC2)=C(c2ccc(Cl)cc2)C1 [Example 452, 2-[(6-amino-5-chloropyridin-3-yl)oxy]-4-(4-{[2-(4-chlorophenyl)-4,4-dimethylcyclohex-1-en-1-yl]methyl}piperazin-1-yl)-N-[(4-{[cis-4-(morpholin-4-yl)cyclohexyl]amino}-3-nitrophenyl)sulfonyl]benzamide]
The Ki of the first is 8.6-fold lower: 0.013 nM for the first, 0.112 nM for the second. The first binds more tightly here.

First: CC1(C)CCC(CN2CCN(c3ccc(C(=O)NS(=O)(=O)c4ccc(OC[C@H]5CC[C@](C)(O)CC5)c([N+](=O)[O-])c4)c(Oc4cnc(N)c(Cl)c4)c3)CC2)=C(c2ccc(Cl)cc2)C1 [Example 441, 2-[(6-amino-5-chloropyridin-3-yl)oxy]-4-(4-{[2-(4-chlorophenyl)-4,4-dimethylcyclohex-1-en-1-yl]methyl}piperazin-1-yl)-N-({4-[(trans-4-hydroxy-4-methylcyclohexyl)methoxy]-3-nitrophenyl}sulfonyl)benzamide]
Second: Cn1c(=O)[nH]c2cccc(Oc3cc(N4CCN(CC5=C(c6ccc(Cl)cc6)CC(C)(C)CC5)CC4)ccc3C(=O)NS(=O)(=O)c3ccc(NCC4CN(C5CC5)CCO4)c([N+](=O)[O-])c3)c21 (centres unmarked) [Example 439, 4-(4-{[2-(4-chlorophenyl)-4,4-dimethylcyclohex-1-en-1-yl]methyl}piperazin-1-yl)-N-[(4-{[(4-cyclopropylmorpholin-2-yl)methyl]amino}-3-nitrophenyl)sulfonyl]-2-[(3-methyl-2-oxo-2,3-dihydro-1H-benzimidazol-4-yl)oxy]benzamide]
The Ki of the first is higher: 0.054 nM for the first, under 0.01 nM for the second.

`CC1(C)CCC(CN2CCN(c3ccc(C(=O)NS(=O)(=O)c4ccc(NC[C@H]5CN(C6COC6)CCO5)c([N+](=O)[O-])c4)c(Oc4cnc(N)c(Cl)c4)c3)CC2)=C(c2ccc(Cl)cc2)C1` [Example 448, 2-[(6-amino-5-chloropyridin-3-yl)oxy]-4-(4-{[2-(4-chlorophenyl)-4,4-dimethylcyclohex-1-en-1-yl]methyl}piperazin-1-yl)-N-{[3-nitro-4-({[(2S)-4-(oxetan-3-yl)morpholin-2-yl]methyl}amino)phenyl]sulfonyl}benzamide] gave a Ki of under 0.01 nM.
